Reference: paper PMC10945480 (Journal of Medicinal Chemistry, 2024)

Tests used:
ERp72 (PDIA4) = molecular target: T1, ERp72 (PDIA4) (Homo sapiens, UniProt P13667); assay: ERp72 reductase assay (Di-E-GSSG); type: biochemical; details: human recombinant
T1 sequence (P13667 21-645): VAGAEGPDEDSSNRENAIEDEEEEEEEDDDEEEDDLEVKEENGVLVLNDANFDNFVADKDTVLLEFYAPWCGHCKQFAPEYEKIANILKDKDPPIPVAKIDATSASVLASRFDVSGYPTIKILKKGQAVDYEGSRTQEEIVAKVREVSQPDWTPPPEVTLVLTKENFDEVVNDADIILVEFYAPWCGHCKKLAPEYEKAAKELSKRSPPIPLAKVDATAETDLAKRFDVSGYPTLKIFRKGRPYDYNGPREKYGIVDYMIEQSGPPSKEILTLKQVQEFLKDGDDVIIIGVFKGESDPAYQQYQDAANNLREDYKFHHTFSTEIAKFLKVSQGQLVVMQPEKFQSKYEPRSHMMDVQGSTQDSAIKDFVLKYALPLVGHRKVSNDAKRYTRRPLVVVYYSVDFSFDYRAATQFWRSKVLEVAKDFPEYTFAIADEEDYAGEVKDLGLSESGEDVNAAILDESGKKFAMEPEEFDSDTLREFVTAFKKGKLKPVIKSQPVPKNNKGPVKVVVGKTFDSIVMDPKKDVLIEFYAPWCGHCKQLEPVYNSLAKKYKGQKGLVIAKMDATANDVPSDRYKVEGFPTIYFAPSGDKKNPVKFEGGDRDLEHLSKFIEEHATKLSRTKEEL
Text: In addition to PDI, ERp57 (PDIA3) and ERp72 (PDIA4) are two other major members of the PDI family in both platelets and A549 cells.[62],[63]

[1] = system: washed human platelets coincubated with A549, MDA-MB-231, or RPMI8226 cancer cells; assay: Tumor cell-induced platelet aggregation (TCIPA); type: cell-based; details: 2 μM; A549, MDA-MB-231, RPMI8226 cells, in the presence of plasma
A549 cancer cells = assay: Platelet-enhanced tumor cell proliferation; type: cell-based, human; details: A549 plus platelets, 48 h, 0.5 to 2 μM
Experimental: In order to examine platelet-enhanced cancer cell growth, A549 cancer cells were coincubated with platelets for 48 h.
Figure 5 Inhibitory effects of JUG derivatives 18 and 22 on tumor cell-induced platelet secretion and platelet-enhanced tumor cell proliferation. (a) Washed human platelets were coincubated with A549 cancer cells under the same conditions as described in Figure 4. Secretion of PDGF and ATP were determined with the enzyme-linked immunosorbent assay (ELISA) and bioluminescent assay, respectively. (b) A549 cancer cells were coincubated with washed human platelets at 37 °C and 5% CO2 in a cell culture incubator for 48 h. After washing with PBS, the numbers of viable cancer cells were determined by trypan blue exclusion. Data are mean ± SEM of at least three independent experiments. In (a), *P < 0.05; **P < 0.01; ***P < 0.001 as compared with vehicle control (DMSO). In (b), *P < 0.05; **P < 0.01; ***P < 0.001 as compared with A549 cells plus platelets.
A549 cells (1 × 10^4 cells/well) were seeded in a 96-well plate and coincubated with wash human platelets (1 × 10^7 cells/well) containing with 0.375% plasma for 48 h at 37 °C and 5% CO2 in a cell culture incubator. After washing with phosphate buffered saline, the numbers of viable cancer cells were determined by trypan blue exclusion.

breast cancer MDA-MB-231 = assay: Cell viability, resazurin assay, MDA-MB-231; details: Homo sapiens, MDA-MB-231, 24 h, read-out: MDA-MB-231 IC50
Experimental: Cells were maintained in a humidified incubator at 37 °C in 5% CO2, and cell viability was determined with the resazurin assay (Cayman Chemical, USA) after the incubation with compounds for indicated concentrations and times or DMSO as control.[72]

platelet surface PDI = platelet surface PDI (Homo sapiens, UniProt P07237); assay: Cell surface PDI reductase activity on intact human platelets (Di-E-GSSG assay)
platelet surface PDI, sequence (P07237 18-508): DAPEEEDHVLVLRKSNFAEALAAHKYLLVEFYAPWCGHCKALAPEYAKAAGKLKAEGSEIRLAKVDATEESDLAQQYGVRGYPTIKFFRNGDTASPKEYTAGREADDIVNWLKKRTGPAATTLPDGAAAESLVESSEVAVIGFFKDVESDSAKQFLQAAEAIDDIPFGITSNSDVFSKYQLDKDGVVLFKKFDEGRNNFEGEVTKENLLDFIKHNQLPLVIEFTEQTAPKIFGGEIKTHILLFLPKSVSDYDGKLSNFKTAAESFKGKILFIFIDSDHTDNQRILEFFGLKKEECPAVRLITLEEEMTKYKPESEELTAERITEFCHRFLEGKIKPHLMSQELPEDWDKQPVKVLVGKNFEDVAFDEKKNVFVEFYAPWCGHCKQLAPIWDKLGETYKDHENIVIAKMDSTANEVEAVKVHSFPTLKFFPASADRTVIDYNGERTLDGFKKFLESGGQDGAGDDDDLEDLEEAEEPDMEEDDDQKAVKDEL
Experimental: In this assay, a nonfluorescent substrate, dieosin glutathione disulfide (Di-E-GSSG), was reduced into a fluorescent product eosin-glutathione (E-GSH) by platelet surface PDI in the presence of 5 μM dithiothreitol (DTT).

SMILES: CC(=O)OC1O[C@H](CSC2=CC(=O)c3cccc(O)c3C2=O)[C@@H](OC(C)=O)C(OC(C)=O)[C@H]1OC(C)=O (stereo in doubt) [Compound 18, 2-(1,2,3,4-Tetra-O-acetyl-6-deoxy-6-thio-α-D-glucopyranose)-8-hydroxynaphthalene-1,4-dione]
- IC50 (ERp72 (PDIA4)): 13.7 ± 0.66 µM
- prevention of TCIPA [1]: significantly prevented TCIPA
- platelet-enhanced cancer cell growth (A549 cancer cells): blunted platelet-enhanced cancer cell growth
- IC50 (breast cancer MDA-MB-231): 6.96 ± 0.47 µM
- IC50 (platelet surface PDI): 0.42 ± 0.07 µM
